The results in this text go back to PubChem BioAssay AID504507 (The Scripps Research Institute Molecular Screening Center, 2011).

For orientation: IC50 means the midpoint of a concentration-inhibition curve.

The target in this assay is sn-1-specific diacylglycerol lipase ABHD11 (Mus musculus) (UniProt Q8K4F5). As to the kind of experiment: ABHD11 inhibition in proteome, IC50 – biochemical, gel-based fluorescent ABPP, mouse, set 2, selectivity assay for LYPLA1 inhibitor project, late-stage follow-up (AID 504507). Particulars: fluorescent probe labeling.
Chain of sn-1-specific diacylglycerol lipase ABHD11 (Mus musculus) (Q8K4F5 whole entry, looked up): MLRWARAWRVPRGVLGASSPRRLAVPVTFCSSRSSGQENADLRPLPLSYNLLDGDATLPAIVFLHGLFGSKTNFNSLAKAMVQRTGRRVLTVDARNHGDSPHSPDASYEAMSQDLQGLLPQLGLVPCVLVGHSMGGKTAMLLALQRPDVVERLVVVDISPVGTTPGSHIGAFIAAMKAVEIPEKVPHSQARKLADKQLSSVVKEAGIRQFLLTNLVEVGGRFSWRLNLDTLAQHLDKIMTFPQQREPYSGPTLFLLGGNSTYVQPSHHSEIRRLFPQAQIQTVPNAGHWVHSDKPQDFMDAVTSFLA

`COCC1CCCCN1C(=O)n1ncc(C(O)(c2ccccc2)c2ccccc2)n1` (configuration not stated): the IC50 is 1 nM. The value for `CCC1CCCCN1C(=O)n1ncc(C(O)(c2ccccc2)c2ccccc2)n1` (configuration not stated) was 15 nM.
